# Results reported in patent publication US7666617B2, “Devices and methods for profiling enzyme substrates” (University of Maryland, Baltimore County, priority 2005, dated 2010).
# Assays:
# endogenous kinase NM23 = experiment: Endogenous NM23 kinase signal (internal control) in the CK2α reverse in-gel kinase assay; details: 75 μM apigenin in assay buffer; LNCaP lysate
# Description: 300 μg of LNCaP lysate was treated with bacteriophage λ phosphatase at 30° C. for 1 hour. The lysate was then precipitated with TCA, resolublized in IEF rehydration buffer and applied to CKα reverse in-gel kinase assay with 25 μg of recombinant human CK2α cast in the gel. 75 μM apigenin was added in the reverse in-gel kinase assay buffer and a parallel assay was performed with same volume of vehicle (DMSO) added to the reaction buffer.
# Protein Kinase A (PKA) = experiment: PKA RIKA of TBB-treated LNCaP cell extract; format: cell-based; details: TBB-treated vs vehicle-treated LNCaP lysate; RIKA gel with 50 μg/ml recombinant PKA
# Description: FIG. 8A-8B, an equivalent mass of protein used for the RIKA shown in FIGS. 7A-7E was applied to a RIKA gel containing 50 μg/ml recombinant PKA. Arrows designates the activity of the endogenous kinase NM23 H1 which serves as an internal control. FIG. 8A is an autoradiogram of the PKA RIKA using the vehicle-treated lysates.
compound,measurement,setting,value
"O=c1cc(-c2ccc(O)cc2)oc2cc(O)cc(O)c12 [Apigenin, apigenin]",effect on endogenous kinase NM23 signal,endogenous kinase NM23,not affected
"Brc1c(Br)c(Br)c2[nH]nnc2c1Br [TBB, 4,5,6,7 tetrabromobenzotriazole]","signal intensity of proteins detected in PKA RIKA, TBB-treated extract",Protein Kinase A (PKA),No increase
